# Tested on: test plant species
# Assay: Post-emergent herbicidal activity test (greenhouse, foliar spray, visual growth reduction)
# Assay type: in vivo
# Conditions: post-emergence, 336 h, ALOMY: blackgrass (Alopecurus myosuroides), 140 g ai/ha, 14 days after application, read-out: Visual Growth Reduction (%) 14 Days After Application, ALOMY
# In short: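 Plants grown in greenhouse (15 h photoperiod, 23-29° C day/22-28° C night) to first or second true leaf stage were sprayed overhead with compound in acetone/water/isopropanol/DMSO/crop oil/X-77 carrier at 187 L/ha. Injury was scored visually after 14 d on a 0-100% scale versus solvent-blank and untreated controls.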
row,Compound,pest or weed control at 140 g/ha [%]
1,"C#Cc1cc(C(F)(F)F)ccc1-c1ccc(Cl)c(C(=O)OC)n1 [F16, methyl 3-chloro-6-(2-ethynyl-4-(trifluoromethyl)phenyl) picolinate]",0 to 29
2,"COC(=O)c1nc(-c2ccc(C(F)(F)F)nc2F)ccc1Cl [F167, Methyl 5-chloro-2′-fluoro-6′-(trifluoromethyl)-[2,3′-bipyridine]-6-carboxylate]",0 to 29

# Same assay, conditions: post-emergence, 336 h, AMARE: redroot pigweed (Amaranthus retroflexus), 140 g ai/ha, 14 days after application, read-out: Visual Growth Reduction (%) 14 Days After Application, AMARE
row,Compound,pest or weed control at 140 g/ha [%]
1,"C#Cc1cc(C(F)(F)F)ccc1-c1ccc(Cl)c(C(=O)OC)n1 [F16, methyl 3-chloro-6-(2-ethynyl-4-(trifluoromethyl)phenyl) picolinate]",30 to 44
2,"COC(=O)c1nc(-c2ccc(C(F)(F)F)nc2F)ccc1Cl [F167, Methyl 5-chloro-2′-fluoro-6′-(trifluoromethyl)-[2,3′-bipyridine]-6-carboxylate]",60 to 74

# Same assay, conditions: post-emergence, 336 h, AVEFA: wild oat (Avena fatua), 140 g ai/ha, 14 days after application, read-out: Visual Growth Reduction (%) 14 Days After Application, AVEFA
row,Compound,pest or weed control at 140 g/ha [%]
1,"C#Cc1cc(C(F)(F)F)ccc1-c1ccc(Cl)c(C(=O)OC)n1 [F16, methyl 3-chloro-6-(2-ethynyl-4-(trifluoromethyl)phenyl) picolinate]",0 to 29
2,"COC(=O)c1nc(-c2ccc(C(F)(F)F)nc2F)ccc1Cl [F167, Methyl 5-chloro-2′-fluoro-6′-(trifluoromethyl)-[2,3′-bipyridine]-6-carboxylate]",0 to 29

# Same assay, conditions: post-emergence, 336 h, CHEAL: lambsquarters (Chenopodium album), 140 g ai/ha, 14 days after application, read-out: Visual Growth Reduction (%) 14 Days After Application, CHEAL
row,Compound,pest or weed control at 140 g/ha [%]
1,"C#Cc1cc(C(F)(F)F)ccc1-c1ccc(Cl)c(C(=O)OC)n1 [F16, methyl 3-chloro-6-(2-ethynyl-4-(trifluoromethyl)phenyl) picolinate]",0 to 29
2,"COC(=O)c1nc(-c2ccc(C(F)(F)F)nc2F)ccc1Cl [F167, Methyl 5-chloro-2′-fluoro-6′-(trifluoromethyl)-[2,3′-bipyridine]-6-carboxylate]",75 to 84

# Same assay, conditions: post-emergence, 336 h, CIRAR: canada thistle (Cirsium arvense), 140 g ai/ha, 14 days after application, read-out: Visual Growth Reduction (%) 14 Days After Application, CIRAR
row,Compound,pest or weed control at 140 g/ha [%]
1,"C#Cc1cc(C(F)(F)F)ccc1-c1ccc(Cl)c(C(=O)OC)n1 [F16, methyl 3-chloro-6-(2-ethynyl-4-(trifluoromethyl)phenyl) picolinate]",30 to 44
2,"COC(=O)c1nc(-c2ccc(C(F)(F)F)nc2F)ccc1Cl [F167, Methyl 5-chloro-2′-fluoro-6′-(trifluoromethyl)-[2,3′-bipyridine]-6-carboxylate]",0 to 29

# Same assay, conditions: post-emergence, 336 h, CYPES: yellow nutsedge (Cyperus esculentus), 140 g ai/ha, 14 days after application, read-out: Visual Growth Reduction (%) 14 Days After Application, CYPES
row,Compound,pest or weed control at 140 g/ha [%]
1,"C#Cc1cc(C(F)(F)F)ccc1-c1ccc(Cl)c(C(=O)OC)n1 [F16, methyl 3-chloro-6-(2-ethynyl-4-(trifluoromethyl)phenyl) picolinate]",0 to 29
2,"COC(=O)c1nc(-c2ccc(C(F)(F)F)nc2F)ccc1Cl [F167, Methyl 5-chloro-2′-fluoro-6′-(trifluoromethyl)-[2,3′-bipyridine]-6-carboxylate]",0 to 29

# Same assay, conditions: post-emergence, 336 h, DIGSA: crabgrass (Digitaria sanguinalis), 140 g ai/ha, 14 days after application, read-out: Visual Growth Reduction (%) 14 Days After Application, DIGSA
row,Compound,pest or weed control at 140 g/ha [%]
1,"C#Cc1cc(C(F)(F)F)ccc1-c1ccc(Cl)c(C(=O)OC)n1 [F16, methyl 3-chloro-6-(2-ethynyl-4-(trifluoromethyl)phenyl) picolinate]",0 to 29

# Same assay, conditions: post-emergence, 336 h, ECHCG: barnyardgrass (Echinochloa crus-galli), 140 g ai/ha, 14 days after application, read-out: Visual Growth Reduction (%) 14 Days After Application, ECHCG
row,Compound,pest or weed control at 140 g/ha [%]
1,"COC(=O)c1nc(-c2ccc(C(F)(F)F)nc2F)ccc1Cl [F167, Methyl 5-chloro-2′-fluoro-6′-(trifluoromethyl)-[2,3′-bipyridine]-6-carboxylate]",0 to 29

# Same assay, conditions: post-emergence, 336 h, IPOHE: ivy-leaf morning glory (Ipomoea hederacea), 140 g ai/ha, 14 days after application, read-out: Visual Growth Reduction (%) 14 Days After Application, IPOHE
row,Compound,pest or weed control at 140 g/ha [%]
1,"COC(=O)c1nc(-c2ccc(C(F)(F)F)nc2F)ccc1Cl [F167, Methyl 5-chloro-2′-fluoro-6′-(trifluoromethyl)-[2,3′-bipyridine]-6-carboxylate]",60 to 74

# Same assay, conditions: post-emergence, 336 h, KCHSC: kochia (Bassia scoparia), 140 g ai/ha, 14 days after application, read-out: Visual Growth Reduction (%) 14 Days After Application, KCHSC
row,Compound,pest or weed control at 140 g/ha [%]
1,"COC(=O)c1nc(-c2ccc(C(F)(F)F)nc2F)ccc1Cl [F167, Methyl 5-chloro-2′-fluoro-6′-(trifluoromethyl)-[2,3′-bipyridine]-6-carboxylate]",30 to 44

# Same assay, conditions: post-emergence, 336 h, ORYSA: rice (Oryza sativa), 140 g ai/ha, 14 days after application, read-out: Visual Growth Reduction (%) 14 Days After Application, ORYSA
row,Compound,pest or weed control at 140 g/ha [%]
1,"COC(=O)c1nc(-c2ccc(C(F)(F)F)nc2F)ccc1Cl [F167, Methyl 5-chloro-2′-fluoro-6′-(trifluoromethyl)-[2,3′-bipyridine]-6-carboxylate]",0 to 29

# Same assay, conditions: post-emergence, 336 h, SETFA: giant foxtail (Setaria faberi), 140 g ai/ha, 14 days after application, read-out: Visual Growth Reduction (%) 14 Days After Application, SETFA
row,Compound,pest or weed control at 140 g/ha [%]
1,"COC(=O)c1nc(-c2ccc(C(F)(F)F)nc2F)ccc1Cl [F167, Methyl 5-chloro-2′-fluoro-6′-(trifluoromethyl)-[2,3′-bipyridine]-6-carboxylate]",60 to 74

# Same assay, conditions: post-emergence, 336 h, SORVU: grain sorghum (Sorghum vulgare), 140 g ai/ha, 14 days after application, read-out: Visual Growth Reduction (%) 14 Days After Application, SORVU
row,Compound,pest or weed control at 140 g/ha [%]
1,"COC(=O)c1nc(-c2ccc(C(F)(F)F)nc2F)ccc1Cl [F167, Methyl 5-chloro-2′-fluoro-6′-(trifluoromethyl)-[2,3′-bipyridine]-6-carboxylate]",75 to 84

# Same assay, conditions: post-emergence, 336 h, STEME: common chickweed (Stellaria media), 140 g ai/ha, 14 days after application, read-out: Visual Growth Reduction (%) 14 Days After Application, STEME
row,Compound,pest or weed control at 140 g/ha [%]
1,"COC(=O)c1nc(-c2ccc(C(F)(F)F)nc2F)ccc1Cl [F167, Methyl 5-chloro-2′-fluoro-6′-(trifluoromethyl)-[2,3′-bipyridine]-6-carboxylate]",0 to 29

# Same assay, conditions: post-emergence, 336 h, TRZAS: wheat, spring (Triticum aestivum), 140 g ai/ha, 14 days after application, read-out: Visual Growth Reduction (%) 14 Days After Application, TRZAS
row,Compound,pest or weed control at 140 g/ha [%]
1,"COC(=O)c1nc(-c2ccc(C(F)(F)F)nc2F)ccc1Cl [F167, Methyl 5-chloro-2′-fluoro-6′-(trifluoromethyl)-[2,3′-bipyridine]-6-carboxylate]",0 to 29

# Same assay, conditions: post-emergence, 336 h, barnyardgrass (Echinochloa crus-galli), 14 Days After Application, 140 g ai/ha, read-out: Visual Growth Reduction (%) ECHCG
row,Compound,pest or weed control at 140 g/ha [%]
1,"C#Cc1cc(C(F)(F)F)ccc1-c1ccc(Cl)c(C(=O)OC)n1 [F16, methyl 3-chloro-6-(2-ethynyl-4-(trifluoromethyl)phenyl) picolinate]",0 to 29

# Same assay, conditions: post-emergence, 336 h, common chickweed (Stellaria media), 14 Days After Application, 140 g ai/ha, read-out: Visual Growth Reduction (%) STEME
row,Compound,pest or weed control at 140 g/ha [%]
1,"C#Cc1cc(C(F)(F)F)ccc1-c1ccc(Cl)c(C(=O)OC)n1 [F16, methyl 3-chloro-6-(2-ethynyl-4-(trifluoromethyl)phenyl) picolinate]",0 to 29

# Same assay, conditions: post-emergence, 336 h, giant foxtail (Setaria faberi), 14 Days After Application, 140 g ai/ha, read-out: Visual Growth Reduction (%) SETFA
row,Compound,pest or weed control at 140 g/ha [%]
1,"C#Cc1cc(C(F)(F)F)ccc1-c1ccc(Cl)c(C(=O)OC)n1 [F16, methyl 3-chloro-6-(2-ethynyl-4-(trifluoromethyl)phenyl) picolinate]",0 to 29

# Same assay, conditions: post-emergence, 336 h, ivy-leaf morning glory (Ipomoea hederacea), 14 Days After Application, 140 g ai/ha, read-out: Visual Growth Reduction (%) IPOHE
row,Compound,pest or weed control at 140 g/ha [%]
1,"C#Cc1cc(C(F)(F)F)ccc1-c1ccc(Cl)c(C(=O)OC)n1 [F16, methyl 3-chloro-6-(2-ethynyl-4-(trifluoromethyl)phenyl) picolinate]",95 to 100

# Same assay, conditions: post-emergence, 336 h, johnsongrass (Sorghum vulgare), 14 Days After Application, 140 g ai/ha, read-out: Visual Growth Reduction (%) SORVU
row,Compound,pest or weed control at 140 g/ha [%]
1,"C#Cc1cc(C(F)(F)F)ccc1-c1ccc(Cl)c(C(=O)OC)n1 [F16, methyl 3-chloro-6-(2-ethynyl-4-(trifluoromethyl)phenyl) picolinate]",75 to 84

# Same assay, conditions: post-emergence, 336 h, kochia (Bassia scoparia), 14 Days After Application, 140 g ai/ha, read-out: Visual Growth Reduction (%) KCHSC
row,Compound,pest or weed control at 140 g/ha [%]
1,"C#Cc1cc(C(F)(F)F)ccc1-c1ccc(Cl)c(C(=O)OC)n1 [F16, methyl 3-chloro-6-(2-ethynyl-4-(trifluoromethyl)phenyl) picolinate]",0 to 29

# Same assay, conditions: post-emergence, 336 h, rice (Oryza sativa), 14 Days After Application, 140 g ai/ha, read-out: Visual Growth Reduction (%) ORYSA
row,Compound,pest or weed control at 140 g/ha [%]
1,"C#Cc1cc(C(F)(F)F)ccc1-c1ccc(Cl)c(C(=O)OC)n1 [F16, methyl 3-chloro-6-(2-ethynyl-4-(trifluoromethyl)phenyl) picolinate]",0 to 29

# Same assay, conditions: post-emergence, 336 h, wheat, spring (Triticum aestivum), 14 Days After Application, 140 g ai/ha, read-out: Visual Growth Reduction (%) TRZAS
row,Compound,pest or weed control at 140 g/ha [%]
1,"C#Cc1cc(C(F)(F)F)ccc1-c1ccc(Cl)c(C(=O)OC)n1 [F16, methyl 3-chloro-6-(2-ethynyl-4-(trifluoromethyl)phenyl) picolinate]",0 to 29
